{"source": "patent US9738612B2", "about": "“Methylacryloyl benzimidazolone derivative and anti-tumour use thereof” (SHANGHAI NATURE STANDARD R&D AND BIOTECH CO., LTD, priority 2014, dated 2017)", "key": {"p-Akt (S473)": {"system": "p-Akt (S473)", "experiment": "Western blot, p-Akt (S473) in IGF stimulated A549 cells", "assay_type": "cell-based", "conditions": "compound 1 h, IGF 10 min, FIG. 1, in words", "experimental": "A549 cells were seeded at a density of 2×10^5 cells/well into 12-well plates, and adhered overnight. Then the medium was discarded and the plates were washed three times with normal saline. After that, fresh serum-free medium was added to starve cells for 24 hours, compounds to be tested were added to work for 1 h, then IGF-I was added to stimulated for 10 min, followed byadding a lysis buffer on ice to lyse for half an hour. The cell lysates were collected and centrifuged at 20000×g at 4° C. for 10min, then the supernatant was collected. Protein was quantified by MicroBCA protein quantification Assay kit, and the protein concentration was normalized. The supernatant was mixed with the 4×SDS sample buffer [200 mM Tris.Cl (pH 6.8), 400 mM DTT, 8% SDS, 0.4% bromophenol blue, 40% glycerol] and boiled for 15 min. After cooling at room temperature, aliquots were loaded on polyacrylamide gel, and electrophoresed in Tris-glycine electrophoretic buffer (25 mM Tris, 250 mM glycine, 0.1% SDS) at 80-120 V for about 2 h. Proteins were transferred from the gel to a nitrocellulose membrane by a semi-dry method. Transferring conditions: transfer buffer (39 mM glycine, 48 mM Tris base, 0.037% SDS, 20% methanol); transfer current 25 mA; transfer time 2 h. After transfer, Ponceau S staining was used to determine the transfer efficiency and the positions of protein bands on the nitrocellulose membranes. After labeling the membrane was blocked with a blocking solution containing 5% nonfat-dried milk [5% nonfat-dried milk, 20 mM Tris-HCl (pH 7.2-7.4), 150 mM NaCl, 0.1% (v/v) Tween 20] on a shaker at room temperature for 2 h. To the system were added specific primary antibodies and incubated overnight at 4° C. Then the membrane was washed with PBST solution [20 mM Tris-HCl (pH 7.2-7.4), 150 mM NaCl, 0.1% (v/v) Tween 20] at room temperature three times, 15 min/time. To the system were added Horseradish peroxidase-labeled secondary antibodies and incubated at room temperature on a shaker with gentle shaking for 2 h. After washing with PBST solution three times, the system was exposed, developed and fixed after SuperSignal West Dura Chemiluminescent Substrate (Pierce Inc, Rochford, IL) was used for color. The results were shown in FIG. 1, in which there were 12 lanes the band shade and size of which indicated the corresponding protein concentration levels. […] MK2206 was an Akt phosphorylation inhibitor developed by Merck, and was currently in phase II clinical trial, showing good therapeutic effects in a variety of tumors."}, "A549": {"system": "A549", "experiment": "Sulforhodamine B proliferation", "assay_type": "cell-based", "conditions": "Homo sapiens, A549, 72 h, SRB, read-out: Inhibitory rate % (A549)", "experimental": "(§1) At a certain density cells were seeded in 96-well plates, and adhered overnight. The medium was discarded after incubating cells with compounds to be tested for 72 h, then 100μL/well trichloroacetic acid (TCA) was added to fix cells at 4° C. for 2h. After that the fixing solution was discarded. Cells were gently washed 5 times with distilled water, dried at room temperature. Cells were stained with 4 mg/mL SRB staining solution (100 μL/well) at room temperature for 15min. The staining solution was discarded, and cells were washed five times with 1% acetic acid (HAC) and dried at room temperature. To the plate tris base buffer (10 mM) was added at 150 μL/well and placed at room temperature for 15min. The OD values were measured at 540 nm wavelength in a microplate reader. Inhibitory rate (%)=(OD valuecontrol wells−OD valuedrugs treated wells)/OD valuecontrol wells×100%.\n(§2) The results were shown in Table 2, the working concentrations of MK2206 and compounds of FD series were 10 μM. As shown in this Table, PC-3 is a prostate cancer cell line purchased from Cell Resource Center of Shanghai Institutes for Biological Sciences, Chinese Academy of Sciences, A549 is a lung cancer cell line purchased from Cell Resource Center of Shanghai Institutes for Biological Sciences, Chinese Academy of Sciences, and SGC-7901 is a gastric cancer cell line purchased from Cell Resource Center of Shanghai Institutes for Biological Sciences, Chinese Academy of Sciences."}, "PC-3": {"system": "PC-3", "experiment": "Sulforhodamine B proliferation", "assay_type": "cell-based", "conditions": "Homo sapiens, PC-3, 72 h, 72 h, SRB, read-out: Inhibitory rate % (PC-3)", "experimental": "as §1, §2"}, "SGC-7901": {"system": "SGC-7901", "experiment": "Sulforhodamine B proliferation", "assay_type": "cell-based", "conditions": "Homo sapiens, SGC-7901, 72 h, SRB, read-out: Inhibitory rate % (SGC-7901)", "experimental": "as §1, §2"}, "SGK(h)": {"system": "SGK(h)", "experiment": "Tumor-associated kinase inhibition test", "assay_type": "biochemical, human", "conditions": "10 μM", "from_the_text": "Eurofins Pharma Discovery Services UK Limited completed and reported this experiment."}, "[1]": {"system": "more than 20 tumor cell lines", "experiment": "Proliferation of more than 20 tumor cell lines (FIG. 2)", "assay_type": "cell-based", "conditions": "FIG. 2, in words", "experimental": "as §1\nIn the present invention the inhibition of a representative compound FD162 to the proliferation of more than 20 tumor cell lines were tested, and the experimental methods were the same as that described in Example 2."}, "[2]": {"system": "PI3K/Akt/mTOR signaling pathway", "experiment": "Inhibition test to signaling pathway at the cellular level (FIG. 4)", "assay_type": "cell-based", "conditions": "different concentrations, FIG. 4, in words", "experimental": "A549 cells were seeded at a density of 2×10^5 cells/well into 12-well plates, and adhered overnight. Then the medium was discarded and the plates were washed three times with normal saline. After that, fresh serum-free medium was added to starve cells for 24 hours, compounds to be tested were added to work for 1 h, then IGF-I was added to stimulated for 10 min, followed byadding a lysis buffer on ice to lyse for half an hour. The cell lysates were collected and centrifuged at 20000×g at 4° C. for 10min, then the supernatant was collected. Protein was quantified by MicroBCA protein quantification Assay kit, and the protein concentration was normalized. The supernatant was mixed with the 4×SDS sample buffer [200 mM Tris.Cl (pH 6.8), 400 mM DTT, 8% SDS, 0.4% bromophenol blue, 40% glycerol] and boiled for 15 min. After cooling at room temperature, aliquots were loaded on polyacrylamide gel, and electrophoresed in Tris-glycine electrophoretic buffer (25 mM Tris, 250 mM glycine, 0.1% SDS) at 80-120 V for about 2 h. Proteins were transferred from the gel to a nitrocellulose membrane by a semi-dry method. Transferring conditions: transfer buffer (39 mM glycine, 48 mM Tris base, 0.037% SDS, 20% methanol); transfer current 25 mA; transfer time 2 h. After transfer, Ponceau S staining was used to determine the transfer efficiency and the positions of protein bands on the nitrocellulose membranes. […]"}}, "data": [{"smiles": "C=C(C)n1c(=O)n(C(C)=O)c2ncc(Br)cc21", "note": "[FD162]", "values": [{"measurement": "Effect on Akt phosphorylation level (p-Akt S473 band)", "setting": "p-Akt (S473)", "result": "significantly reduce the Akt phosphorylation level"}, {"measurement": "Effect on Akt phosphorylation level (p-Akt S473 band)", "setting": "p-Akt (S473); listed as FD3", "result": "comparable effects to MK2206"}, {"measurement": "inhibition at 10 µM", "setting": "A549", "result": 12.1, "unit": "%"}, {"measurement": "inhibition at 10 µM", "setting": "PC-3", "result": 62.4, "unit": "%"}, {"measurement": "inhibition at 10 µM", "setting": "SGC-7901", "result": 70.2, "unit": "%"}, {"measurement": "Inhibitory rate (%)", "setting": "SGK(h)", "result": "−4", "unit": "%"}, {"measurement": "Inhibition of proliferation of tumor cell lines", "setting": "[1]", "result": "widespread inhibitory effects"}, {"measurement": "Down-regulation of PI3K/Akt/mTOR signaling pathway", "setting": "[2]", "result": "down-regulate PI3K/Akt/mTOR signaling pathway in a dose-dependent manner"}]}]}
